Data on seven molecules can be found in article PMC4970510 (Journal of Medicinal Chemistry, 2016).

One assay has as its system human A2BAR. The settings on record: at 1 mM, human fibroblasts; cited from earlier work.
In assay [1] the test system is mouse chronic constriction injury (CCI) model. The note with it: same dose (3 μmol/kg po); cited from earlier work.
The target in assay [2] is T1, hA3AR (Homo sapiens, UniProt P0DMS8).
T1 sequence (P0DMS8 1-318): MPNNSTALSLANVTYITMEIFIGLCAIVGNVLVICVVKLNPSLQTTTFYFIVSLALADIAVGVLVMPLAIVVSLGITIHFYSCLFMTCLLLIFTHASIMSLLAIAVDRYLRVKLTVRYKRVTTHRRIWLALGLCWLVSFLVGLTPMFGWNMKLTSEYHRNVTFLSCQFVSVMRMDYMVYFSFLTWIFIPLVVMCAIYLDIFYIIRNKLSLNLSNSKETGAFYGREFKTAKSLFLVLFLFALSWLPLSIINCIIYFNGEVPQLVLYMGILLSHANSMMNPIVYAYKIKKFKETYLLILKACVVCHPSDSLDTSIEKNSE
The experiment in a line: Radioligand binding at hA3AR. The note with it: ratio of hA3AR Ki.

The target of a further assay is T2, mA3AR (Mus musculus, UniProt Q61618).
T2 sequence (Q61618 1-319): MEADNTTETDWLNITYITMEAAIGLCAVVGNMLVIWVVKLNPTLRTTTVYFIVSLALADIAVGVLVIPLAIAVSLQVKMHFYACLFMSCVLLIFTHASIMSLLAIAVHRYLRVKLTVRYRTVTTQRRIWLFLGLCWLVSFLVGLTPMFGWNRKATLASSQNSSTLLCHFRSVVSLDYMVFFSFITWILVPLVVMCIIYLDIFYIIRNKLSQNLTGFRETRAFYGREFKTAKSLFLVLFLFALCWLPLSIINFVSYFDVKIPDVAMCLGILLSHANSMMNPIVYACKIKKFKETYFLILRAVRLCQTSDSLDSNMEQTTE
It is filed as cell-based. The settings on record: compared to reference full agonist 55.

In assay [3] the test system is mouse chronic constriction injury (CCI) model. The experiment in a line: Mouse chronic constriction injury. The settings on record: po, 3 μmol/kg. It is filed as in vivo.
In assay [4] the target is human dopamine transporter (hDAT) (Homo sapiens, UniProt Q01959). The experiment in a line: PDSP radioligand binding at human dopamine transporter. The settings on record: at 10 μM, [3H] tropane radioligand.
Assay [5] in a line: PDSP broad off-target screen of receptors and channels. It is filed as binding. The note with it: PDSP screen of diverse receptors.
Another assay concerns the target T3, hA1AR (Homo sapiens, UniProt P30542).
T3 sequence (P30542 1-326): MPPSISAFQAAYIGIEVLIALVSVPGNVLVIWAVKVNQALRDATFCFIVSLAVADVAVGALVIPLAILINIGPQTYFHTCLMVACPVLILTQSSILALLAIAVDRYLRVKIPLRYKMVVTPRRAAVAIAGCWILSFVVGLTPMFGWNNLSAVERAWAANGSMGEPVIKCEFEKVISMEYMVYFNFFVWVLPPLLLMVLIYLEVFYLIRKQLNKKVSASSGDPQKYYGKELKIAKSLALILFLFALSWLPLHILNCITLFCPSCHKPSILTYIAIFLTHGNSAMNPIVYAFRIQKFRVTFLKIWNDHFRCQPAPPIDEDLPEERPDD
In words: Radioligand binding at hA1AR.

A further assay concerns the target hA2AAR (Homo sapiens, UniProt P29274). The experiment in a line: Radioligand binding at hA2AAR.
Assay [6] has as its target T1, hA3AR. It is filed as cell-based. The note with it: relative to 1 at 10 μM, CHO cells.
The subject of assay [7] is canine coronary artery A2AAR. The settings on record: activation of canine coronary artery A2AAR; cited from earlier work.
Another assay deals with adenosine deaminase. The note with it: cited from earlier work.

“Also recorded” adds a separate entry of the source.

Sequence of hA2AAR (P29274 whole entry): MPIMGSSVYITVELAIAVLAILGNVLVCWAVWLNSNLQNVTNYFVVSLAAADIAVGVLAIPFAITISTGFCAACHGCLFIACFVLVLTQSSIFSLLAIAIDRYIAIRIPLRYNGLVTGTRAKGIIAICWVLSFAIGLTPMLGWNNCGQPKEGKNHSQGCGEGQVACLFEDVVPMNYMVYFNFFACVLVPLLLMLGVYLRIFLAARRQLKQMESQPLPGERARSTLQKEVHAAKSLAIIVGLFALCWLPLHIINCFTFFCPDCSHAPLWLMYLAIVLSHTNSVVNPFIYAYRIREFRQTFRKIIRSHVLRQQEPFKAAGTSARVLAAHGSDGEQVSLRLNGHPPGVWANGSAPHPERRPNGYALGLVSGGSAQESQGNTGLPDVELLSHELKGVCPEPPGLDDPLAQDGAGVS
Sequence of human dopamine transporter (hDAT) (Q01959 whole entry): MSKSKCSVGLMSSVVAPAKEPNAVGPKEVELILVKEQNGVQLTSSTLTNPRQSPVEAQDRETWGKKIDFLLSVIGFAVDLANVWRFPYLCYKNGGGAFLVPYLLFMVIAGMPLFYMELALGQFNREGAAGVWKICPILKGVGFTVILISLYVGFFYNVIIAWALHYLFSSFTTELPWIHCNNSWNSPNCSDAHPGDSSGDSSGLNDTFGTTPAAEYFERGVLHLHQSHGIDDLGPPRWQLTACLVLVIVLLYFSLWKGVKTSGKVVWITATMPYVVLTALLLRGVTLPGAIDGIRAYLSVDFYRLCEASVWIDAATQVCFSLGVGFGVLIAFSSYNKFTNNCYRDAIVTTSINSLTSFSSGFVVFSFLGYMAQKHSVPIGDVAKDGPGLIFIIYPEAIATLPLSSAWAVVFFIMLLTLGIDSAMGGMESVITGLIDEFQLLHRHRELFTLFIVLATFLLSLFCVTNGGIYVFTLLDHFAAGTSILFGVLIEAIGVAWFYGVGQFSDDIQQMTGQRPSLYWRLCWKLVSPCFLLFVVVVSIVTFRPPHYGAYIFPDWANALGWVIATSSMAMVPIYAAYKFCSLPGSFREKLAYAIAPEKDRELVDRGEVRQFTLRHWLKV

Consider `Cc1ncnc2c1ncn2[C@@H]1O[C@H](CO)[C@@H](O)[C@H]1O` [6-methylpurine-9-riboside], for which the “Efficacy relative to 10 μM adenosine” value in the assay on human A2BAR is on record as 6%.
Consider `CNC(=O)[C@@]12C[C@@H]1[C@@H](n1cnc3c(NCc4cccc(Cl)c4)nc(C#Cc4ccc(F)c(F)c4)nc31)[C@H](O)[C@@H]2O` [Compound 8], for which, in [1], the “Protection against mechanoallodynia at 1 h” value is given as 100%.
Take `CNC(=O)[C@@]12C[C@@H]1[C@@H](n1cnc3c(/C=C(\O)c4ccccc4)nc(C#Cc4ccccc4)nc31)[C@H](O)[C@@H]2O` [Compound 12, (1S,2R,3S,4R,5S)-2,3-Dihydroxy-4-(6-((Z)-2-hydroxy-2-phenylvinyl)-2-(phenylethynyl)-9H-purin-9-yl)-N-methylbicyclo[3.1.0]hexane-1-carboxamide]: the “Fold more potent at hA3AR than C2–Cl derivative 11b” value at hA3AR [2] was 15 fold. For the same molecule, on mA3AR, the mA3AR agonist efficacy result was “full agonists”. In [3] (day 7), the “Reversal of mechanoallodynia (neuropathic pain)” value (“Reversal of mechanoallodynia” below) is “efficacious in reducing pain” and the “Reversal of the pain” value is reported as less than 100%.
As to `CNC(=O)[C@@]12C[C@@H]1[C@@H](n1cnc3c(C)nc(C#Cc4ccccc4)nc31)[C@H](O)[C@@H]2O` [Compound 15], in [3] (day 7), the “Reversal of mechanoallodynia” value was “efficacious in reducing pain” and the “Reversal of the pain” value was less than 100%. In addition, in assay [4], the “Enhancement of hDAT radioligand binding” value was “roughly 200%”. Further, the Off-target interactions result in assay [5] is “no significant binding inhibition”.
Consider `CNC(=O)[C@@]12C[C@@H]1[C@@H](n1cnc3c(C)nc(C#Cc4ccc(Cl)s4)nc31)[C@H](O)[C@@H]2O` [Compound 19, (1S,2R,3S,4R,5S)-4-(2-((5-Chlorothiophen-2-yl)ethynyl)-6-methyl-9H-purin-9-yl)-2,3-dihydroxy-N-methylbicyclo[3.1.0]hexane-1-carboxamide], for which the Ki at hA1AR and on hA2AAR was greater than 10 µM in each case. The hA3AR agonist efficacy result at hA3AR [6] is recorded as “potent, full agonists”.
As for `CNC(=O)[C@@]12C[C@@H]1[C@@H](n1cnc3cnc(C#Cc4ccc(Cl)s4)nc31)[C@H](O)[C@@H]2O` [Compound 21, (1S,2R,3S,4R,5S)-4-(2-((5-Chlorothiophen-2-yl)ethynyl)-9H-purin-9-yl)-2,3-dihydroxy-N-methylbicyclo[3.1.0]hexane-1-carboxamide], the Ki at hA1AR and on hA2AAR was greater than 10 µM throughout. For the same molecule, the hA3AR agonist efficacy entry at hA3AR [6] is on record as “potent, full agonists”. Also, in assay [3] (day 7), the Duration of action result is on record as “at least 5 h”. In addition, the “Reversal of mechanoallodynia” value in assay [3] (day 7) is “clearly more efficacious and longer lasting; also recorded: completely reversing mechanoallodynia”; in assay [3] (day 7, listed as MRS7220), “completely reversed”. Besides, the Off-target interactions result in assay [5] is reported as “no off-target interactions”.
With `OC[C@H]1O[C@@H](n2cnc3cncnc32)[C@H](O)[C@@H]1O` [Compound 56, purine-9-riboside], the “Efficacy relative to 10 μM adenosine” value in the assay on human A2BAR is on record as 15%. For the same molecule, the “Fold less potent than adenosine” value in assay [7] was 40 fold. Besides, the Adenosine deaminase inhibition entry with adenosine deaminase is “weak inhibitor”.
